Laboratory results reported in patent US5891454A, “Anti-cancer drug and special tumor necrotizing agent” (Wu; Alexander, priority 1997, dated 1999).
Several values for one entry are separate records, joined by “and”; a condition that tells them apart may be missing. Identical values can stand only once.

How the values were obtained:
[1] = test system: mouse transplanted liver tumor; experiment: Anti-tumor effect on mouse transplanted liver tumor (I.M.); assay type: in vivo; settings: CTX 18.0 mg/kg/d x10
Description: (§1) A solvent blank (i.e., the specifically designed solution illustrated in Table 1), a saline blank as a […] control are used as controls for the in vivo tests. As per the Drug Administration Law of the People's Republic of China, and the rules governing observation of the pharmaco-dynamic study of the therapy action, the tumors were surgically removed from tumor infected mice and were homogenized to form suspensions followed by filtration to make a suspension solution at 1×10^6 -10^7 cell/ml. The suspension was injected (i.e., 0.2 ml per mice) into the test mice for tumor growth until the transplanted tumor cells were established and grew up to a size of 0.5×0.5 cm. […] At the end of the in vivo tests, several parameters such as mouse body weight, average tumor weight and percentage of tumor inhibition, are determined.
(§2) % inhibition rate=(average tumor weight of the solvent group or
(§3) tumor rate of the solvent group

mouse S-180 sarcoma = experiment: Anti-tumor effect on mouse transplanted sarcoma S-180 (I.M.); assay type: in vivo; settings: CTX 18.0 mg/kg/d x10
Description: as §1, §2, §3

Solubility in water = assay type: physicochemical; settings: water or a water-based solution
skin fungal diseases = settings: 7-8% solution by weight with propylene glycol; cited from earlier work
[2] = P <0.01 vs saline control, three experiments

Row | SMILES | Anti-tumor inhibit rate [1, 2] | Body weight final ([1]; outset 19.9, 20.3, 20.9 in three experiments, in g (unit assumed)) | Ave. weight of tumor (x + SD) ([1]; three experiments) | Anti-tumor inhibit rate (mouse S-180 sarcoma; [2]) | Body weight final (mouse S-180 sarcoma; outset 22.4, 22.6, 19.3 in three experiments, in g (unit assumed)) | Ave. weight of tumor (x ± SD) (mouse S-180 sarcoma; three experiments) | dissolution in water (Solubility in water) | topical anti-fungal activity (skin fungal diseases)
1 | O=P1(N(CCCl)CCCl)NCCCO1 (centres unmarked) [CTX] | 40.7% and 46.2% and 60.0% | 27.9 and 28.5 | 1.81 ± 0.22 g and 1.57 ± 0.63 g and 0.94 ± 0.41 g | 51.6% and 53.3% and 52.5% | 30.9 and 26.4 | 1.37 ± 0.47 g and 1.29 ± 0.43 g and 1.14 ± 0.28 g |  | 
2 | Cc1ccc(S(N)(=O)=O)cc1 [para-toluene sulfonamide] |  |  |  |  |  |  | not readily dissolved in water or in a water-based solution | highly effective
